Reference: US9883996B2, “Methods and compositions for enhancing skin pigmentation” (THE GENERAL HOSPITAL CORPORATION, priority 2014, dated 2018)
Entries after “also recorded” stand apart in the source; their conditions may differ. One block for each molecule: values may come before it.

Tests used:
Melanocytes 1 = assay: Toxicity via ATP-based assay (Cell titer glow); settings: ATP-based assay 2 days after start of treatment
Experimental: (§1) Three different NNT inhibitors were tested for efficacy and toxicity in melanocytes and melanoma cells. […] Toxicity measured via ATP-based assays (Cell titer glow) 2 days after start of treatment.

Melanocytes 2 = assay: Toxicity via ATP-based assay (Cell titer glow); settings: ATP-based assay 2 days after start of treatment
Experimental: as §1

Dermal Fibroblasts = assay: Toxicity via ATP-based assay (Cell titer glow); settings: ATP-based assay 2 days after start of treatment
Keratinocytes = assay: Toxicity via ATP-based assay (Cell titer glow); settings: ATP-based assay 2 days after start of treatment
human skin explants [1] = assay: Pigmentation of human skin explants treated topically or intradermally with NNT inhibitors (visual inspection, colorimeter, Fontana-Masson staining); assay type: cell-based; settings: for human skin pigmentation (darkening): daily application for 5 days; for microscopic pigmentation / eumelanin, Fontana-Masson staining: 50 mM, once per day for 5 consecutive days
Experimental: Human skin explants obtained from subjects undergoing abdominoplasty were defatted and grown on 2% agar plates for 10 days. These explants were treated topically or intradermally with NNT inhibitors. […]
In addition, skin patches (Fitzpatrick Type II) were topically treated for 4 days with 2,3 butane-dione at the following concentrations: 0.4% w/v (˜47 mM), 0.8% w/v, 1.6% w/v, 3.12% w/v, 6.25% w/v, 12.5% w/v, and 25% w/v.

UACC257 melanoma cells = assay: GSH/GSSG measurements after DCC treatment; assay type: cell-based, human; settings: 3 days after DCC treatment
Experimental: (§2) FIGS. 7A-7C show GSH/GSSG ratios 3 days after N,N-Dicyclohexylcarbodiimide (DCC) treatment. To confirm the observation by Moody et al. (Biochem J., 1983) that DCC and Butanedione inhibit NNT enzyme activity, GSH/GSSG measurements were performed in human melanoma and primary melanocytes. […] FIG. 7A, GSH and GSSG measurements in UACC257 melanoma cells. FIG. 7B, GSH and GSSG measurements in primary melanocytes (PM) WM26 cells. FIG. 7C, GSH/GSSG ratios of UACC257 melanoma and […] primary melanocytes. *, indicates significant differences (p<0.05).
(§3) In one embodiment GSH/GSSG ratios are determined using the GSH/GSSG-GLO assay commercially available from PROMEGA.

[2] = tested on: primary melanocytes (PM) WM26 cells; assay: GSH/GSSG measurements after DCC treatment; assay type: cell-based, human; settings: primary melanocytes WM26, 3 days after DCC treatment
Experimental: as §2, §3

UACC 257 melanoma = assay: BrdU ELISA toxicity; assay type: cell-based, human; settings: 3 days after treatment
Experimental: (§4) FIGS. 8A-8B show BrdU ELISA data 3 days after DCC treatment.
(§5) In one embodiment, the viability of a cell or the proliferation of a cell is determined using a bromodeoxyuridine (BrdU) assay. BrdU is a synthetic analog of thymidine that is commonly used in the detection of proliferating cells in living tissues. BrdU can be incorporated into the newly synthesized DNA of replicating cells (during the S phase of the cell cycle), substituting for thymidine during DNA replication. Antibodies specific for BrdU can then be used to detect the incorporated chemical, thus indicating cells that were actively replicating their DNA. BrdU assays are well known to those of skill in the art and are not described in detail herein. In some embodiments, an ATP=based measurement can be used (e.g., Cell Titer Glow™).

WM26 primary melanocytes = assay: BrdU ELISA toxicity; assay type: cell-based, human; settings: 3 days after treatment
Experimental: as §4, §5

Melan-A cells = assay: Measurement of eumelanin in murine melanocytes; assay type: cell-based
human skin = assay: Cyclobutane dimer (CPD) staining of treated human skin, DNA damage; assay type: cell-based; settings: 50 mM once per day for 5 days; for CPD formation after UVB irradiation: then 1000 mJ/cm^2 UVB, vs DMSO+UVB control
Experimental: Cyclobutane dimer (CPD) staining was performed on human skin treated with 50 mM 2,3butanedione for 5 consecutive days (treatment once per day) as a marker to assess DNA damage in the skin samples. On the fifth day, skin was irradiated with 1000 mJ/cm^2 UVB (equivalent to approximately 3 h in the sun at equatorial areas).

human skin explants [3] = assay: H&E staining of treated skin samples (inflammation, skin damage); assay type: cell-based; settings: 50 mM, skin patches

SMILES: C(=NC1CCCCC1)=NC1CCCCC1 [DCC, N,N-Dicyclohexylcarbodiimide]
IC50 (Melanocytes 1): > 10 µM
IC50 (Melanocytes 2): > 10 µM
IC50 (Dermal Fibroblasts): > 10 µM
IC50 (Keratinocytes): > 10 µM
human skin pigmentation (darkening) (human skin explants [1]; topical, human skin explants): significant darkening; also recorded: visible increase of human skin pigmentation
GSH/GSSG ratios (UACC257 melanoma cells): decreased in a dose-dependent manner
GSH/GSSG ratios [2]: decreased in a dose-dependent manner
cell death (BrdU ELISA) (UACC 257 melanoma): no significant induction of cell death
cell death (BrdU ELISA) (WM26 primary melanocytes): no significant induction of cell death
pigmentation (eumelanin) (Melan-A cells; 10 mM): increased pigmentation

SMILES: CC(=O)C(C)=O [2,3 Butanedione, 2,3-butanedione]
IC50 (Melanocytes 1; Melanocyte, 48 h): > 10 µM
IC50 (Melanocytes 2; Melanocyte, 48 h): > 10 µM
IC50 (Dermal Fibroblasts; Fibroblast, 48 h): > 10 µM
IC50 (Keratinocytes; Keratinocyte, 48 h): > 10 µM
microscopic pigmentation / eumelanin, Fontana-Masson staining (human skin explants [1]): increase in eumelanin expression
microscopic pigmentation / eumelanin, Fontana-Masson staining (human skin explants [1]; listed as 2,3 BD): significant microscopic pigmentation
pigmentation compared with one-time UV-B treatment at 150 mJ/cm^2 (human skin explants [1]; Fitzpatrick Type II skin patches, topical 4 days, lowest concentration 0.4% w/v (~47 mM)): darker than the pigmentation induced by a one-time UV-B treatment
pigmentation with increasing concentrations (human skin explants [1]; Skin type 2 (Fitzpatrick Scale) explant, in DMSO): increase pigmentation
lowest dose at which visible changes in skin pigmentation were observed (human skin explants [1]; once per day for five consecutive days, all three skin types (Fitzpatrick I-II, III-IV, V-VI), lowest dose tested): 1.2 µM
human skin pigmentation (darkening) (human skin explants [1]; topical, human skin explants): visible increase of human skin pigmentation
human skin pigmentation (darkening) (human skin explants [1]; topical, human skin explants, listed as 2,3 BD): significant darkening
pigmentation (eumelanin) (Melan-A cells; 2 mM): increased pigmentation
pigmentation (eumelanin) (Melan-A cells; 10 mM): increased pigmentation
CPD formation after UVB irradiation (human skin; listed as 2, 3, butanedione): decrease in CPD
CPD formation after UVB irradiation (human skin; listed as 2,3BD): protective role
CPD formation in the absence of UV radiation exposure (human skin; vs DMSO treated control): decrease in CPD formation
inflammation or skin damage, H&E staining (human skin explants [3]): no inflammation was observed
inflammation or skin damage, H&E staining (human skin explants [3]; listed as 2,3 BD): No significant inflammation or skin damage

skin penetration after topical application (human skin explants [1]; topical, human skin explants): unable to penetrate
SMILES: CCCCCCCCCCCCCCCC(=O)SCCNC(=O)CCNC(=O)[C@H](O)C(C)(C)COP(=O)(O)OP(=O)(O)OC[C@H]1O[C@@H](n2cnc3c(N)ncnc32)[C@H](O)[C@@H]1OP(=O)(O)O [Palmitoyl-CoA, palmitoyl CoA]
IC50 (Melanocytes 1; Melanocyte, 48 h): > 10 µM
IC50 (Melanocytes 2; Melanocyte, 48 h): > 10 µM
IC50 (Dermal Fibroblasts; Fibroblast, 48 h): > 10 µM
IC50 (Keratinocytes; Keratinocyte, 48 h): > 10 µM
skin darkening after intradermal treatment (human skin explants [1]; intradermal, human skin explants): induced darkening
